The values that follow come from patent US20240299393A1, “SMALL MOLECULE DISRUPTORS OF PROTEIN INTERACTIONS IN HISTONE DEACETYLASE COMPLEXES” (Dana-Farber Cancer Institute, Inc., priority 2021, published 2024).

Where “and” joins values, the source holds several entries; their conditions need not be identical. Identical values can stand only once. Entries after “also recorded” stand apart in the source; their conditions may differ. Square brackets hold non-standard residues; d marks the D form. Peptide text beside a SMILES is read from it. ξ: configuration not given here. Aoe(9ξ) = N[C@@H](CCCCCC(=O)C1CO1)C(=O)O; dPip = O=C(O)[C@H]1CCCCN1

A short description of data set [1]: Mouse liver microsome stability test. Type of data set: in vitro ADME. As to conditions: 1 mg/mL hepatic microsomes. The protocol:
Mouse liver microsome (MLM) half-life measurements were performed by Scripps Florida Pharmacology Core, according to their protocols [Lamberto et al 2017]. 1 mg/mL hepatic microsomes was used to test compounds.
To assess whether E6R may be suitable for testing the effect of HDAC inhibition via new mechanisms in mouse, the half-life […] and intrinsic clearance (Clint) of this compound was first measured using a standard microsomal metabolic assay where sunitinib was used as a control [Lamberto et al 2017]. In this setting, compound degradation is induced by concentrated microsomes isolated from mouse liver. In particular, these hepatic extracts contain the cytochrome P450 system that is primarily responsible for first pass metabolism in vivo.
(Liver microsomes are a subcellular fraction often used to study metabolism.)

Data set [2] relates to CDKN1A, SOCS3, EGR1 in SK-N-BE(2)-C cells. Kind of data set: RT-qPCR of SIN3 HDAC complex-regulated genes in neuroblastoma cells. The settings on record: 100 μM for 16 h. Type of data set: cell-based, human. The protocol:
(§1) The RT-qPCR protocol used in this study was described elsewhere [Choi et al 2012]. Culture, RNA extraction, and compound treatments for neuroblastoma SK-N-BE(2)-C cells are described below. Approximately 1 μg RNA per sample was used for reverse transcription. Using a thermocycler, RNA was denatured in the presence of 0.2 μg 18 mer oligo-dT by heating the plate at 65° C. for 10 min. The plate was then immediately cooled down on ice to anneal oligo-dT on the poly-A tail of mRNA. A master mix of AffinityScript Multiple Temperature Reverses Transcriptase (Agilent, cat #600107) was prepared following the manufacturer's protocol, and mixed with RNA samples previously annealed with the oligo-dT. The plate was incubated at 42° C. for 2 h to generate cDNAs from mRNA templates. The reverse transcriptase was then denatured by heating the plate at 70° C. for 15 min. The resulting cDNA was diluted (1:20) in sterile, ultra pure water (ddH2O), and stored at −20° C. until used for qPCR. To measure gene expression, the diluted cDNA was mixed with 5 μL PowerUp SYBR Green master mix (Applied Biosystems, cat #A25743), and the mix of primers (forward+reverse, see FIG. 31; 0.3 μM final concentration) for a total volume of 10 μL. Two technical replicates were generated per cDNA sample in the 384-well PCR plate (Applied Biosystems, cat #4343370). The plate was tightly sealed with optical adhesive film (Applied Biosystems, cat #4311971). Quantitative PCR was conducted with a QuantStudio real-time PCR system from Applied Biosystems, with the following settings: 50° C./2 min, 95° C./10 min, 96° C./15 s/40 cycles, and 60° C./30 s. Dissociation curves were checked for each PCR product, to assess the specificity of the PCR amplicons.
SK-N-BE(2)-C cells were maintained in cell culture flasks supplemented with 10% Fetal bovine serum (FBS) and penicillin/streptomycin (PS) in Dulbecco's Modified Eagle's Medium (DMEM). The cells were maintained at a log phase in a humidified 5% CO2 incubator at 37° C. For testing the effect of the compounds on gene expression, approximately 0.1 million cells were seeded on each well of 24-well cell culture plates, with 1 mL 10% FBS+PS+DMEM. 24 h after seeding the cells, they were exposed to the compounds or DMSO control for 16 h in a humidified 5% CO2 incubator at 37° C., before harvesting them.
Cells were harvested for RNA extraction using Nucleospin 96 RNA (Macherey-Nagel, cat #740709.4) following manufacturer's protocol. Briefly, supernatant was removed, and the cells were gently washed with 1× phosphate-buffered saline. 300 μL lysis buffer were added to each well of 24 well cell culture plates. Roughly 0.1 million cells were used for harvesting each RNA sample. RNA concentration was measured for all purified RNA samples using a nanodrop spectrophotometer.

The subject of data set [3] is human neuroblastoma SK-N-BE(2)-C xenograft. Kind of data set: Neuroblastoma xenograft efficacy study. Type of data set: in vivo. As to conditions: E6R 50 mg/kg, SAHA 20 mg/kg. The protocol: Xenografts studies were performed at the TRACE PDX platform of the Leuven Cancer Institute (LKI) at KU Leuven-UZ Leuven. Treatment experiments included 24 NMRI-Foxlnu nude mice (Taconic) implanted with human neuroblastoma cell line SK-N-BE(2)-C(2 million cells/implant/mouse). Cells, tested for a full panel of murine pathogens (Impact profile I, IDEXX) prior to engraftment, were resuspended in 50% matrigel solution in PBS for injection in the mouse right flank. When tumors reached a volume of approximately 200 mm^3, mice were randomly assigned to vehicle (34% DMSO, 55% saline 0.9%, 5% ethanol, 5% kolliphor, 1% NaOH 1 M), E6R (50 mg/kg), or SAHA (20 mg/kg) treatment groups. Treatments were administered daily intraperitoneally for 10 days or until reaching human endpoint (i.e. tumor volume >1,500 mm^3). Tumors were measured daily with digital calipers, and volume was estimated as V=L×W×H×(π/6) (L: length; W: width; H: height). […] All data were analyzed using GraphPad Prism 8. Comparisons between the vehicle and treated groups were tested for statistical significance using […].

Data set [4] deals with DOI-induced head-twitch response (HTR). The settings on record: literature reports; cited from earlier work.
Data set [5] deals with Sin3 PAH2/Ume6 SID interaction (Saccharomyces cerevisiae, UniProt P22579). Kind of data set: biochemical.
Description: IC50 determination for unlabeled Ume6 SID, E6, E6R and E6S: the concentrations of FITC-Ume6 SID (30 nM), and GST-Sin3 PAH2 (3 μM) were fixed and the compounds were titrated with an HP D300 (Hewlett-Packard, CA) to the assay plate. The assayed concentrations are given here as μM concentrations: 6, 6.6, 8.6, 11.2, 14.7, 19.3, 25.3, 33.1, 43.4, 56.9, 74.5, 97.7, 128, 167.7, 219.7, 287.9, 377.2, 494.2, 647.5 and 848.3.
Using a fluorescence polarization (FP) assay, the interaction between the two minimal domains of Sin3 and Ume6 reported in the literature was measured [Washburn & Esposito 2001, Le Guezennec et al 2006]: the paired amphipathic helix 2 (PAH2; residues 402-473) and the Sin3-interacting domain (SID; residues 516-531), respectively (FIG. 6A). In this FP setting, Sin3 PAH2 is N-terminally fused to a glutathione S-transferase (GST) tag while Ume6 SID is labeled with a fluorescein isothiocyanate (FITC) probe at the N-terminal position. […] The binding affinity of this interaction was evaluated at 0.9 μM, as reflected by the calculated equilibrium dissociation constant, KD.
To examine inhibition of the Sin3-Ume6 interaction by E6 outside of potential interference from other cellular components, an in vitro fluorescence polarization (FP) assay was used.
Data set [6] addresses Sc Sin3 PAH2-Ume6 SID (TAMRA-labeled) interaction (Saccharomyces cerevisiae, UniProt P22579). In words: biochemical.
Description: Symbols represent individual data points (A) or means with SEM, and lines fitted curves.
IC50 determination for unlabeled Ume6 SID, E6, E6R and E6S: the concentrations of FITC-Ume6 SID (30 nM), and GST-Sin3 PAH2 (3 μM) were fixed and the compounds were titrated with an HP D300 (Hewlett-Packard, CA) to the assay plate.
For data set [7], the system named is Rpd3-regulated genes (URS-URA3, INO1, IME2, CAR1, SPO13, TRK2). Kind of data set: RT-qPCR of Rpd3-regulated genes in yeast. Type of data set: cell-based, S. cerevisiae. How it is done: After yeast cells reached OD600 nm ˜0.5 in 0.8-1 mL of YPD, they were grown for two more hours at room temperature before being centrifuged to remove supernatant and freezing pellets on dry ice. For compound treatments, yeast cells at OD600 nm˜0.5 in YPD were incubated at room temperature for two hours with DMSO (1-1.6%) or the desired compound (from 25 mM stock in 100% DMSO) in an 2 mL-tube for a final volume of 0.8 mL in YPD, before being centrifuged, washed and frozen as described above. Yeast cells were then harvested for RNA extraction using a RiboPure RNA Purification Kit (Invitrogen, cat #AM1926), which involves mechanical cell wall disruption, phenol extraction of the lysate, and RNA purification using glass fiber, and filter-based RNA purification columns. RNA concentration was measured for individually purified RNA samples using a NanoDrop spectrophotometer. A total of 1 μg RNA from each sample was used for reverse transcription following a published procedure [Choi, S. G. et al 2012].
as §1
Expression of gene X normalized to the control gene expression=k*1.96^(Ct^Control^−Ct^Test^) • where k is an arbitrary multiplier (k=1000 in this study), 1.96 is the PCR amplification efficiency constant, Ct is the cycle threshold, CtControl is the Ct value for the housekeeping gene used as control (UBC6 in yeast [Teste et al 2009]; RPS11 in human cells [Zhan et al 2014], and CtTest is the Ct value for the tested gene. Replicates corresponding to DMSO treatments or WT yeast cells were averaged and other data points normalized using those DMSO or WT values as references (i.e. expression relative to DMSO or WT). TAF10 in yeast or SNRPD3 in human cells were used as genes not known for being regulated by an HDAC complex (HDAC-unrelated genes).
In general terms: Quantitative PCR measures a nucleic acid by following its amplification.

The subject of data set [8] is Rpd3-sensitive acid phosphatase activity. In words: Yeast acid phosphatase plate assay. Type of data set: cell-based, S. cerevisiae. The settings on record: phosphate-rich (high Pi) medium. How it is done: The acid phosphatase plate assay was implemented as previously described [To et al 1973, Loewith et al 2001], with minor modifications. Cells were grown on high Pi medium (see above) for 2 days, at 30° C. A staining solution containing 2 mg/mL of 1-naphtyl phosphate (Sigma, N5602) and 4 mg/mL fast blue B salt (Sigma, D9805) was then prepared in 50 mM sodium acetate buffer pH 4.0±0.1, and maintained at 50° C. for ˜30 min before being filtered. Meanwhile, a solution of 10 mg/mL (1% weight/volume) ultra pure low melting point (LMP) agarose (Invitrogen, 15517-022) was prepared in 50 mM sodium acetate buffer pH 4.0±0.1, by microwaving the suspension until complete dissolution of the powder. The volume of the agarose solution was checked and readjusted with 50 mM sodium acetate buffer pH 4.0±0.1. The agarose solution was then mixed with the filtered staining solution by vortexing briefly, and the resulting suspension was kept at 50° C. for ˜15 min. The solid agar plate on which cells grew for 2 days were then gently overlaid with the agarose-containing staining solution, allowing its gelification on top of the cells. A red coloring started to appear ˜2 min after covering cells with the solution.

Data set [9] has as its system cycloheximide (CYH) sensitivity. Kind of data set: Yeast cycloheximide sensitivity at 37° C. Type of data set: cell-based, S. cerevisiae. The protocol:
For assessment of cycloheximide (CYH) sensitivity at 37° C., yeast cells with the cyh2^R genotype (FIG. 29) were first transformed with an empty pDEST-AD-TRP1-CYH2 plasmid (FIG. 30) before running the different experiments. Selection of the plasmid was maintained by culturing cells in SC-W medium.

Data set [10] concerns HDAC class I and II enzymes (live yeast cells, HeLa nuclear extract, semi-purified human HDAC1). Kind of data set: HDAC-Glo I/II luminescence HDAC enzymatic assay. Type of data set: biochemical, S. cerevisiae; human. The settings on record: three HDAC sources.
Description: The HDAC-Glo I/II screening system (Promega, cat #G6430) was adapted to measure the effect of compounds on the enzymatic activity of human and yeast HDAC sources. […] FLAG-HDAC1 was eluted from anti-FLAG beads before running the assay, using a FLAG peptide. Nuclear extracts from human HeLa cells were provided in the assay kit. HDAC enzymatic activity was measured following the manufacturer's protocol. Briefly, linear ranges of the assay were determined by measuring luminescence signals, in a serial dilution manner, for semi-purified human HDAC1, or live yeast cells, diluted in the HDAC-Glo I/II buffer. For HeLa nuclear extracts, the manufacturer provided this information in the assay kit. For the different HDAC sources, dilution factors corresponding to signals in the linear ranges were used. To test the effect of compounds (three or four replicates) on HDAC enzymatic activity, equal volumes of HDAC sources (5 μL), and inhibitors (5 μL) were added to the different wells of a white, flat bottom 384-well plate. The plate was then briefly centrifuged with a tabletop centrifuge, and gently shaken for 1 min at 700 rpm. The plate was tightly sealed to prevent evaporation, and incubated at room temperature for 1 h. […] Luminescence signals were measured using a TriStar luminometer from Berthold Technologies, with 1 s integration time per sample. […]

Sin3 PAH2/Ume6 SID interaction, sequence (P22579 402-473): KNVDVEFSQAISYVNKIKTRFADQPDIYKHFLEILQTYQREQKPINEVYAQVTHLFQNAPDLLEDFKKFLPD
Sc Sin3 PAH2-Ume6 SID (TAMRA-labeled) interaction, sequence (P22579 402-473): as above

As to `CCN(CC)CCNC(=O)c1c(C)[nH]c(/C=C2\C(=O)Nc3ccc(F)cc32)c1C` [sunitinib, reference compound], in data set [1], the “half-life in mouse liver microsomes” value was about 10 min.

`O=C(CCCCCCC(=O)Nc1ccccc1)NO` [SAHA, suberoylanilide hydroxamic acid, reference compound]: the “effect on expression of CDKN1A, SOCS3 and EGR1” value (“effect on expression of CDKN1A” for short) in [2] is “derepressed”. In addition, the “tolerability and body weight of xenografted mice” value in data set [3] (daily) was “did not affect mice weight; also recorded: well-tolerated”. For the same compound, the “growth of neuroblastoma tumors compared to vehicle” value in data set [3] (daily intraperitoneally 10 days) is “significantly reduced the growth”. In addition, the “head-twitch behavior after chronic treatment” value in [4] is given as “reduced DOI-induced head-twitch behavior in WT, but not in HDAC2 cKO mice; also recorded: reduces head-twitch response (HTR) behavior”.

For the compound `C[C@H](NC(=O)c1c(O)n2ccccc2nc1=O)c1ccccc1` [E6S], in [2], the “effect on expression of CDKN1A” value is “only perturbed expression of two of the tested downstream genes”. Moreover, the IC50 in data set [5] is 155 µM and 174 µM; in data set [6], 597 µM. For the same compound, the Ki in data set [5] (inhibitory concentration (Ki), from Example 6 IC50, assuming competitive inhibition) was about 30 µM; in data set [5] (inhibitory concentrations (Ki), from Example 6A IC50, assumption of competitive inhibition), 38.5 µM.

In the case of `O=C(CCCCC[C@@H]1NC(=O)[C@H]2CCCCN2C(=O)[C@H](Cc2ccccc2)NC(=O)[C@H](Cc2ccccc2)NC1=O)C1CO1` (stereo partly shown) [TRX, trapoxin A] (cyclo(FF[dPip][Aoe(9ξ)])), the “effect on CAR1 and SPO13 expression” value in data set [7] (250 μM) is “consistently derepressed”. Also, in [7] (FIG. 3I), the “effect on all Rpd3-regulated loci” value is “activated all Rpd3-regulated loci”. Also, the “Rpd3-sensitive acid phosphatase activity” value in [8] is on record as “induced”. For the same compound, the CYH sensitivity result in data set [9] is listed as “induced”. Further, in [10], the “inhibition of HDAC enzymatic activity” value is “systematically reduced HDAC activity”. Also, in data set [2], the “effect on expression of CDKN1A” value is given as “derepressed”.

In general, IC50 refers to the concentration at which inhibition is half-maximal. A higher IC50 goes with weaker potency. What is called Ki is the equilibrium dissociation constant of an inhibitor or competing ligand from its target. A higher Ki goes with a looser hold on the target.
